Experimental findings from paper PMC12040169 (PLOS Biology, 2025) are described below.

The nature of this data set: in vitro. The following applies: human, hela cells, % viability.
On to `O=C(NCc1ccc(OC2CCNCC2)cc1)c1cnccn1` [CBK036359T], for which the viability at 28.5 h, 10 µM was 104%.

Consider `Cn1cccc1C(=O)NCc1ccc(OC2CCNCC2)cc1` [CBK036360T], for which the viability at 28.5 h, 10 µM was determined as 93%.

With `COc1ccc(C(=O)Nc2cncc(OC3CCNCC3)n2)cc1` [CBK036370T], the viability at 28.5 h, 10 µM came out at 94.4%.

Take `N#Cc1ccc(C(=O)Nc2cncc(OC3CCNCC3)n2)cc1` [CBK036371T]: the viability at 28.5 h, 10 µM was found to be 90.6%.

Consider `Cc1cc(C)cc(S(=O)(=O)c2ccc3ccnc(N4CCCNCC4)c3c2)c1` [CBK036413C], for which the viability at 28.5 h, 10 µM was 87.1%.

With `O=S(=O)(c1ccc(Cl)cc1)c1ccc2ccnc(N3CCCNCC3)c2c1` [CBK036416C], the viability at 28.5 h, 10 µM was found to be 82.9%.

Regarding `COc1ccc([C@@]23CC[C@@H](NC(=O)Nc4cccc(C#N)c4)C[C@@H]2N(C)CC3)cc1OC` [CBK036448T], the viability at 28.5 h, 10 µM stood at 103%.

On to `COc1ccc([C@@]23CC[C@@H](NC(=O)Nc4ccc(OC(F)(F)F)cc4)C[C@@H]2N(C)CC3)cc1OC` [CBK036455T], for which the viability at 28.5 h, 10 µM is 82.2%.

For the compound `COc1ccc([C@@]23CC[C@@H](NC(=O)Nc4ccc(F)cc4)C[C@@H]2N(C)CC3)cc1OC` [CBK036458T], the viability at 28.5 h, 10 µM was 93.5%.

Turning to `COc1ccc([C@@]23CC[C@@H](NC(=O)Nc4cccc(SC)c4)C[C@@H]2N(C)CC3)cc1OC` [CBK036459T], the viability at 28.5 h, 10 µM turned out to be 91.1%.

As to `COc1ccc(NC(=O)N[C@@H]2CC[C@@]3(c4ccc(OC)c(OC)c4)CCN(C)[C@H]3C2)c(C)c1` [CBK036460T], the viability at 28.5 h, 10 µM is 97.2%.

`COc1ccc([C@@]23CC[C@@H](NC(=O)Nc4ccc(C(C)(C)C)cc4)C[C@@H]2N(C)CC3)cc1OC` [CBK036469T]: the viability at 28.5 h, 10 µM was found to be 92%.

`COc1ccc([C@@]23CC[C@@H](NC(=O)Nc4cc(C)c(C)cc4[N+](=O)[O-])C[C@@H]2N(C)CC3)cc1OC` [CBK036478T]: the viability at 28.5 h, 10 µM was 67.8%.

Regarding `O=S(=O)(c1ccc(Cl)c(Cl)c1)c1ccc2nccc(N3CCNCC3)c2c1` [CBK036497C], the viability at 28.5 h, 10 µM was found to be 84.8%.

With `COc1ccc([C@@]23CC[C@@H](NC(=O)Nc4cc(C)ccc4F)C[C@@H]2N(C)CC3)cc1OC` [CBK036509T], the viability at 28.5 h, 10 µM was found to be 102%.

With `COc1cc(C)c(NC(=O)c2cnc(-c3ccc(F)cc3)c(-c3ccncc3)c2)cc1OC` [CBK036575], the viability at 28.5 h, 10 µM came to 97.5%.

Turning to `OCCNc1nccnc1-c1ccoc1` [CBK036580], the viability at 28.5 h, 10 µM stood at 106%.

For the compound `CN(C)C(=O)c1cccc(-c2nccnc2NCCO)c1` [CBK036582], the viability at 28.5 h, 10 µM was found to be 90.3%.

For the compound `CN(C)CCN1CCN(c2nc(-c3ccc4[nH]ccc4c3)cn3ccnc23)CC1` [CBK036587], the viability at 28.5 h, 10 µM turned out to be 102%.

For `CC(=O)Nc1cccc(-c2nccnc2N2CCCCC2CCO)c1` (stereo not drawn) [CBK036591], the viability at 28.5 h, 10 µM is 101%.

As to `c1csc(CNc2nccnc2-c2ccoc2)c1` [CBK036599], the viability at 28.5 h, 10 µM is 107%.

With `c1csc(CNc2nccnc2-c2cccs2)c1` [CBK036602], the viability at 28.5 h, 10 µM was 92.6%.

With `CC(=O)Nc1cccc(-c2cn3ccnc3c(N[C@@H](CO)C(C)C)n2)c1` [CBK036605], the viability at 28.5 h, 10 µM stood at 106%.

Turning to `CCC(CO)Nc1nccnc1-c1ccsc1` (stereo not drawn) [CBK036606], the viability at 28.5 h, 10 µM came to 107%.

For `CCC(CO)Nc1nccnc1-c1ccc(CO)cc1` (stereo not drawn) [CBK036607], the viability at 28.5 h, 10 µM turned out to be 93%.

`COc1cc(Nc2nc(-c3cccc4ccccc34)cn3ccnc23)cc(OC)c1OC` [CBK036608]: the viability at 28.5 h, 10 µM was 96.1%.

`OCCN(CCO)c1nccnc1-c1ccccc1F` [CBK036610]: the viability at 28.5 h, 10 µM came to 106%.

Take `CN1CCN(c2nccnc2-c2cccnc2)CC1` [CBK036612]: the viability at 28.5 h, 10 µM was 89.8%.

For `CC(=O)c1ccc(-c2cc(C(=O)NCCc3cccnc3)cnc2-c2ccc(F)cc2)s1` [CBK036614], the viability at 28.5 h, 10 µM turned out to be 102%.

`Clc1cccc(CNc2nccnc2-c2ccoc2)c1` [CBK036616]: the viability at 28.5 h, 10 µM is 105%.

With `c1coc(CNc2nccnc2-c2cccs2)c1` [CBK036618], the viability at 28.5 h, 10 µM turned out to be 85.5%.

In the case of `COc1ccc(-c2cc(C(=O)Nc3ccc(OC(F)(F)F)cc3)cnc2-c2ccccc2)cn1` [CBK036621], the viability at 28.5 h, 10 µM was 79.2%.

On to `CC(=O)c1ccc(-c2cc(C(=O)Nc3ccc4c(c3)OCCO4)cnc2-c2ccc(Cl)cc2)s1` [CBK036627], for which the viability at 28.5 h, 10 µM was determined as 105%.

With `c1cnc(-c2ccoc2)c(NCCCN2CCOCC2)n1` [CBK036631], the viability at 28.5 h, 10 µM was 95.3%.

As to `COc1ccc(-c2cc(C(=O)N[C@@H](C)c3ccccc3)cnc2-c2cccc(C)c2)cc1` [CBK036635], the viability at 28.5 h, 10 µM was 105%.

In the case of `COc1ccc(-c2cc(C(=O)N3CCN(C(C)=O)CC3)cnc2-c2ccccc2)cn1` [CBK036637], the viability at 28.5 h, 10 µM was found to be 101%.

On to `COc1ncc(-c2nccnc2N2CCCC2CO)c(OC)n1` (stereo not drawn) [CBK036638], for which the viability at 28.5 h, 10 µM amounted to 92.8%.

As to `CC(C)[C@@H](CO)Nc1nccnc1-c1ccc(CN)cc1` [CBK036640], the viability at 28.5 h, 10 µM was found to be 104%.

Regarding `NC(=O)c1ccc(-c2nccnc2NCCc2ccncc2)cc1` [CBK036644], the viability at 28.5 h, 10 µM was 97.1%.

For `CC(=O)NCCNC(=O)c1cnc(-c2ccc(Cl)cc2)c(-c2ccc(O)cc2)c1` [CBK036647], the viability at 28.5 h, 10 µM amounted to 101%.

Consider `COc1ccc(-c2cc(C(=O)NCCc3c[nH]c4ccccc34)cnc2-c2ccc(F)cc2)cn1` [CBK036649], for which the viability at 28.5 h, 10 µM is 95.2%.

Take `CN(C)C(=O)c1cccc(-c2nccnc2NCc2cccc([N+](=O)[O-])c2)c1` [CBK036651]: the viability at 28.5 h, 10 µM was 94.3%.

As to `Cc1cccc(-c2ncc(NC(=O)c3cccc(N(C)C)c3)nc2-c2ccco2)c1` [CBK036654], the viability at 28.5 h, 10 µM came to 103%.

Take `CC(C)[C@H](CO)NC(=O)c1cnc(-c2ccc(Cl)cc2)c(-c2ccco2)c1` [CBK036658]: the viability at 28.5 h, 10 µM was determined as 108%.

Consider `CC(=O)Nc1ccc(NC(=O)c2cnc(-c3cccc(C)c3)c(-c3ccncc3)c2)cc1C(F)(F)F` [CBK036660], for which the viability at 28.5 h, 10 µM is 49.6%.

On to `CS(=O)(=O)CCNC(=O)c1cnc(-c2cccc(C(F)(F)F)c2)c(-c2ccncc2)c1` [CBK036661], for which the viability at 28.5 h, 10 µM was found to be 105%.

For `COc1ccc(-c2cc(C(=O)NCCc3cccc(C(F)(F)F)c3)cnc2-c2ccccc2)cn1` [CBK036662], the viability at 28.5 h, 10 µM amounted to 99.9%.

Turning to `COc1ccc(-c2cc(C(=O)NCCc3c[nH]cn3)cnc2-c2ccc(F)cc2)cn1` [CBK036675], the viability at 28.5 h, 10 µM was determined as 112%.

Take `O=C(c1cnc(-c2ccccc2)c(-c2cccnc2)c1)N1CCC(S(=O)(=O)c2ccccc2)C1` (stereo not drawn) [CBK036685]: the viability at 28.5 h, 10 µM was 103%.

With `Nc1ccc(-c2nc(NC(=O)Cc3ccccc3)cnc2-c2ccc(F)c(Cl)c2)cc1` [CBK036690], the viability at 28.5 h, 10 µM came to 89.5%.

For the compound `CC(C)[C@H](CO)NC(=O)c1cnc(-c2ccccc2)c(-c2ccncc2)c1` [CBK036691], the viability at 28.5 h, 10 µM is 115%.

As for `COc1ccc(-c2cc(C(=O)NCC(F)(F)F)cnc2-c2ccc(Cl)cc2)cn1` [CBK036698], the viability at 28.5 h, 10 µM is 103%.

On to `COc1ccc(-c2cc(C(=O)NCc3ccc(F)cc3)cnc2-c2cccc(C)c2)cc1` [CBK036702], for which the viability at 28.5 h, 10 µM was 98.8%.

`COc1ccc(C(C)C)cc1-c1nccnc1NC1CCC(N)CC1` (stereo not drawn) [CBK036703]: the viability at 28.5 h, 10 µM stood at 108%.

On to `COc1ccc(-c2cc(C(=O)N3CCC(S(C)(=O)=O)C3)cnc2-c2ccccc2)cn1` (stereo not drawn) [CBK036706], for which the viability at 28.5 h, 10 µM stood at 99.7%.

For `O=C(O)c1cccc(NC(=O)c2cnc(-c3ccccc3)c(-c3ccco3)c2)c1` [CBK036710], the viability at 28.5 h, 10 µM stood at 93.4%.

With `COc1ccc(C(C)C)cc1-c1nccnc1N[C@@H](CO)C(C)C` [CBK036711], the viability at 28.5 h, 10 µM was determined as 109%.

As for `O=C(Nc1cnc(-c2cccc(C(F)(F)F)c2)c(-c2ccco2)n1)c1cccnc1` [CBK036714], the viability at 28.5 h, 10 µM was determined as 95.3%.

`CC(=O)N1CCC(C(=O)Nc2cnc(-c3ccc(F)c(Cl)c3)c(-c3cccnc3)n2)CC1` [CBK036719]: the viability at 28.5 h, 10 µM came out at 108%.

Turning to `CC(=O)c1ccc(OCC(=O)Nc2cnc(-c3cccc(C)c3)c(-c3ccc(N)cc3)n2)cc1` [CBK036722], the viability at 28.5 h, 10 µM was determined as 107%.

`Cc1noc(C)c1C(=O)Nc1cnc(-c2cccc(C(F)(F)F)c2)c(-c2cccnc2)n1` [CBK036727]: the viability at 28.5 h, 10 µM came to 96.8%.

Regarding `COc1ccc(-c2cc(C(=O)NCc3ccc(N)cc3)cnc2-c2cccc(C)c2)cc1` [CBK036728], the viability at 28.5 h, 10 µM was 106%.

With `COc1ccc(-c2cc(C(=O)NCCc3ccccn3)cnc2-c2cccc(C)c2)cc1` [CBK036730], the viability at 28.5 h, 10 µM is 93.7%.

In the case of `C[C@@H](Nc1nccnc1-c1cccc(F)c1)c1ccccc1` [CBK036733], the viability at 28.5 h, 10 µM was 98.3%.

In the case of `CC(C)(CO)CNC(=O)c1cnc(-c2ccccc2)c(-c2ccncc2)c1` [CBK036734], the viability at 28.5 h, 10 µM amounted to 111%.

As to `c1ccc2c(CCNc3nccnc3-c3ccoc3)c[nH]c2c1` [CBK036743], the viability at 28.5 h, 10 µM was 102%.

Turning to `Cc1cccc(-c2ncc(NC(=O)CC3OC(=O)c4ccccc43)nc2-c2ccc(N)cc2)c1` (stereo not drawn) [CBK036749], the viability at 28.5 h, 10 µM was 91.5%.

For `CC(NC(=O)c1cnc(-c2ccc(Cl)cc2)c(-c2ccc(O)cc2)c1)c1ccc(F)cc1` (stereo not drawn) [CBK036751], the viability at 28.5 h, 10 µM is 89.9%.

On to `COC1CCC(C(=O)Nc2cnc(-c3cccc(OC(F)(F)F)c3)c(-c3cccnc3)n2)CC1` (stereo not drawn) [CBK036754], for which the viability at 28.5 h, 10 µM amounted to 97.4%.

For `COc1ccccc1-c1nccnc1NCc1ccc(OC(F)(F)F)cc1` [CBK036761], the viability at 28.5 h, 10 µM stood at 96%.

As to `Fc1cccc(-c2nccnc2NCCc2ccncc2)c1` [CBK036763], the viability at 28.5 h, 10 µM stood at 95.8%.

For the compound `CCC(CO)Nc1nccnc1-c1cccc(F)c1` (stereo not drawn) [CBK036775], the viability at 28.5 h, 10 µM is 108%.

For the compound `COc1cccc(CNc2nccnc2-c2ccoc2)c1OC` [CBK036782], the viability at 28.5 h, 10 µM turned out to be 105%.

As to `Nc1cccc(-c2nccnc2N2CCCC2CO)c1` (stereo not drawn) [CBK036786], the viability at 28.5 h, 10 µM was 102%.

`CN(C)CCN1CCN(c2ccc(-c3ccc(OC(F)(F)F)cc3)cn2)CC1` [CBK036796]: the viability at 28.5 h, 10 µM amounted to 94.7%.
